According to BigSolDB 2.1:

c1ccc(-c2nnn[nH]2)cc1
Conditions	solubility (mole fraction)
in 1,4-dioxane, 283.15 K	0.00929
in 1,4-dioxane, 285.65 K	0.00982
in 1,4-dioxane, 288.15 K	0.0104
in 1,4-dioxane, 290.65 K	0.0109
in 1,4-dioxane, 293.15 K	0.0114
in 1,4-dioxane, 295.65 K	0.012
in 1,4-dioxane, 298.15 K	0.0125
in 1,4-dioxane, 300.65 K	0.0131
in 1,4-dioxane, 303.15 K	0.0138
in 1,4-dioxane, 305.65 K	0.0145
in 1,4-dioxane, 308.15 K	0.0151
in 1,4-dioxane, 310.65 K	0.0158
in 1,4-dioxane, 313.15 K	0.0165
in 1,4-dioxane, 315.65 K	0.0172
in 1,4-dioxane, 318.15 K	0.018
in 2-butanone, 283.15 K	0.0156
in 2-butanone, 285.65 K	0.0163
in 2-butanone, 288.15 K	0.017
in 2-butanone, 290.65 K	0.0178
in 2-butanone, 293.15 K	0.0185
in 2-butanone, 295.65 K	0.0193
in 2-butanone, 298.15 K	0.0202
in 2-butanone, 300.65 K	0.0211
in 2-butanone, 303.15 K	0.022
in 2-butanone, 305.65 K	0.023
in 2-butanone, 308.15 K	0.0239
in 2-butanone, 310.65 K	0.0249
in 2-butanone, 313.15 K	0.026
in 2-butanone, 315.65 K	0.0271
in 2-butanone, 318.15 K	0.0281
in DMF, 283.15 K	0.208
in DMF, 285.65 K	0.22
in DMF, 288.15 K	0.231
in DMF, 290.65 K	0.244
in DMF, 293.15 K	0.257
in DMF, 295.65 K	0.269
in DMF, 298.15 K	0.282
in DMF, 300.65 K	0.296
in DMF, 303.15 K	0.308
in DMF, 305.65 K	0.322
in DMF, 308.15 K	0.336
in DMF, 310.65 K	0.35
in DMF, 313.15 K	0.365
in DMF, 315.65 K	0.379
in DMF, 318.15 K	0.393
in DMSO, 293.15 K	0.278
in DMSO, 295.65 K	0.291
in DMSO, 298.15 K	0.304
in DMSO, 300.65 K	0.317
in DMSO, 303.15 K	0.33
in DMSO, 305.65 K	0.343
in DMSO, 308.15 K	0.356
in DMSO, 310.65 K	0.369
in DMSO, 313.15 K	0.384
in DMSO, 315.65 K	0.398
in DMSO, 318.15 K	0.412
in acetone, 283.15 K	0.0169
in acetone, 285.65 K	0.0176
in acetone, 288.15 K	0.0184
in acetone, 290.65 K	0.0192
in acetone, 293.15 K	0.02
in acetone, 295.65 K	0.0208
in acetone, 298.15 K	0.0217
in acetone, 300.65 K	0.0226
in acetone, 303.15 K	0.0236
in acetone, 305.65 K	0.0245
in acetone, 308.15 K	0.0256
in acetone, 310.65 K	0.0266
in acetone, 313.15 K	0.0278
in acetone, 315.65 K	0.029
in acetone, 318.15 K	0.0302
in acetonitrile, 283.15 K	0.00181
in acetonitrile, 285.65 K	0.00197
in acetonitrile, 288.15 K	0.00216
in acetonitrile, 290.65 K	0.00236
in acetonitrile, 293.15 K	0.00253
in acetonitrile, 295.65 K	0.0028
in acetonitrile, 298.15 K	0.00307
in acetonitrile, 300.65 K	0.00331
in acetonitrile, 303.15 K	0.00359
in acetonitrile, 305.65 K	0.00389
in acetonitrile, 308.15 K	0.00421
in acetonitrile, 310.65 K	0.00449
in acetonitrile, 313.15 K	0.0049
in acetonitrile, 315.65 K	0.0052
in acetonitrile, 318.15 K	0.00555
in cyclohexane, 283.15 K	3.56e-06
in cyclohexane, 285.65 K	3.93e-06
in cyclohexane, 288.15 K	4.34e-06
in cyclohexane, 290.65 K	4.54e-06
in cyclohexane, 293.15 K	5.04e-06
in cyclohexane, 295.65 K	5.38e-06
in cyclohexane, 298.15 K	5.97e-06
in cyclohexane, 300.65 K	6.41e-06
in cyclohexane, 303.15 K	6.91e-06
in cyclohexane, 305.65 K	7.5e-06
in cyclohexane, 308.15 K	8.16e-06
in cyclohexane, 310.65 K	8.97e-06
in cyclohexane, 313.15 K	9.6e-06
in cyclohexane, 315.65 K	1.04e-05
in cyclohexane, 318.15 K	1.11e-05
in ethanol, 283.15 K	0.0148
in ethanol, 285.65 K	0.0156
in ethanol, 288.15 K	0.0164
in ethanol, 290.65 K	0.0172
in ethanol, 293.15 K	0.0181
in ethanol, 295.65 K	0.019
in ethanol, 298.15 K	0.02
in ethanol, 300.65 K	0.0209
in ethanol, 303.15 K	0.022
in ethanol, 305.65 K	0.023
in ethanol, 308.15 K	0.0241
in ethanol, 310.65 K	0.0253
in ethanol, 313.15 K	0.0264
in ethanol, 315.65 K	0.0277
in ethanol, 318.15 K	0.0289
in ethyl acetate, 283.15 K	0.00628
in ethyl acetate, 285.65 K	0.00648
in ethyl acetate, 288.15 K	0.00665
in ethyl acetate, 290.65 K	0.00691
in ethyl acetate, 293.15 K	0.00717
in ethyl acetate, 295.65 K	0.00746
in ethyl acetate, 298.15 K	0.00773
in ethyl acetate, 300.65 K	0.00804
in ethyl acetate, 303.15 K	0.00838
in ethyl acetate, 305.65 K	0.00878
in ethyl acetate, 308.15 K	0.00918
in ethyl acetate, 310.65 K	0.00961
in ethyl acetate, 313.15 K	0.0101
in ethyl acetate, 315.65 K	0.0106
in ethyl acetate, 318.15 K	0.0111
in isopropanol, 283.15 K	0.0141
in isopropanol, 285.65 K	0.0147
in isopropanol, 288.15 K	0.0155
in isopropanol, 290.65 K	0.0163
in isopropanol, 293.15 K	0.0171
in isopropanol, 295.65 K	0.0179
in isopropanol, 298.15 K	0.0189
in isopropanol, 300.65 K	0.0198
in isopropanol, 303.15 K	0.0208
in isopropanol, 305.65 K	0.0217
in isopropanol, 308.15 K	0.0227
in isopropanol, 310.65 K	0.0237
in isopropanol, 313.15 K	0.0248
in isopropanol, 315.65 K	0.0257
in isopropanol, 318.15 K	0.0268
in methanol, 283.15 K	0.0156
in methanol, 285.65 K	0.0164
in methanol, 288.15 K	0.0172
in methanol, 290.65 K	0.018
in methanol, 293.15 K	0.0189
in methanol, 295.65 K	0.0199
in methanol, 298.15 K	0.0209
in methanol, 300.65 K	0.0219
in methanol, 303.15 K	0.023
in methanol, 305.65 K	0.024
in methanol, 308.15 K	0.0252
in methanol, 310.65 K	0.0264
in methanol, 313.15 K	0.0276
in methanol, 315.65 K	0.0289
in methanol, 318.15 K	0.0302
in n-propanol, 283.15 K	0.0136
in n-propanol, 285.65 K	0.0142
in n-propanol, 288.15 K	0.0148
in n-propanol, 290.65 K	0.0154
in n-propanol, 293.15 K	0.016
in n-propanol, 295.65 K	0.0167
in n-propanol, 298.15 K	0.0174
in n-propanol, 300.65 K	0.0181
in n-propanol, 303.15 K	0.0188
in n-propanol, 305.65 K	0.0196
in n-propanol, 308.15 K	0.0204
in n-propanol, 310.65 K	0.0213
in n-propanol, 313.15 K	0.0221
in n-propanol, 315.65 K	0.023
in n-propanol, 318.15 K	0.0239
in toluene, 283.15 K	2.5e-05
in toluene, 285.65 K	2.85e-05
in toluene, 288.15 K	3.35e-05
in toluene, 290.65 K	3.84e-05
in toluene, 293.15 K	4.45e-05
in toluene, 295.65 K	5.09e-05
in toluene, 298.15 K	5.84e-05
in toluene, 300.65 K	6.64e-05
in toluene, 303.15 K	7.62e-05
in toluene, 305.65 K	8.68e-05
in toluene, 308.15 K	9.91e-05
in toluene, 310.65 K	0.000113
in toluene, 313.15 K	0.000129
in toluene, 315.65 K	0.000146
in toluene, 318.15 K	0.000165
